This is an account of results in patent US6593455B2, “Tripeptide amides that block viral infectivity and methods of use thereof” (Tripep AB, priority 2001, dated 2003).

Ends that are not written are not given here.

The assay relates to HIV-1 SF-2. Put plainly: HIV-1 infectivity assay in H9 cells (p24 production and RT activity in culture supernatants). It is filed as cell-based. The following applies: approximately 100 μm peptide. The source says:
The tripeptide amides made according to EXAMPLE 1 were used in several HIV-1 infectivity assays to determine the ability of said tripeptide amides to inhibit HIV replication and/or infection. The efficiency of HIV-1 replication and status of HIV-1 infection was monitored by reverse transcriptase activity and the concentration of p24 protein in the cell supernatant. (See e.g., U.S. Pat. Nos. 5,627,035 and 6,258,932B1, herein expressly incorporated by reference in their entireties, which describe similar HIV infectivity assays and others that can be used to analyze the tripeptide amides described herein). EXAMPLE 2 describes an approach that was used to screen several tripeptide amides for their ability to inhibit HIV-1 infection.
In this example, the methods that were used to analyze the ability of various tripeptide amides to inhibit HIV-1 replication are disclosed. Approximately 10^5 of H9 cells were infected with HIV-1 SF-2 at 25 TCID50 to test the inhibitory effect of the following synthesized tripeptides: Ser-Ile-Leu-NH2, Ile-Leu-Asp-NH2, Gly-Pro-Lys-NH2, Pro-Lys-Glu-NH2, Lys-Glu-Pro-NH2, Glu-Pro-Phe-NH2, Arg-Asp-Tyr-NH2, Asp-Tyr-Val-NH2, Tyr-Lys-Thr-NH2, Arg-Ala-Glu-NH2, Ala-Glu-Gln-NH2, Glu-Gln-Ala-NH2, Val-Lys-Asn-NH2, Thr-Glu-Thr-NH2, Leu-Leu-Val-NH2, Val-Gln-Asn-NH2, Gln-Asn-Ala,-NH2, Asn-Ala-Asn-NH2, Asn-Pro-Asp-NH2, Pro-Asp-Cys-NH2, Cys-Lys-Thr-NH2, Thr-Ile-Leu-NH2, Pro-Gly-Ala-NH2, Thr-Leu-Glu-NH2, Thr-Ala-Cys-NH2, Ala-Cys-Gln-NH2, Gln-Gly-Val-NH2, Pro-Gly-His-NH2, and Arg-Val-Leu-NH2. Accordingly, the H9 cells were resuspended with or without the different peptides (approximately 100 μm) in 1 ml of RPMI 1640 medium supplemented with 10% (v/v) heat-inactivated fetal bovine serum (FBS), penicillin (100 μ/ml), and streptomycin (100 μ/ml), all available through GIBCO, and Polybrene (2 μg/ml), available through Sigma. Thereafter, viruses were added at 25 TCID50 in a volume of 20-30 μl. Cells were incubated with virus at 37° C. for 1 hr then pelleted at 170×g for 7 minutes. The cells were then washed three times in RPMI medium with or without peptides at room temperature and pelleted at 170×g for 7 minutes, as above. After the final wash, the cells were resuspended in RPMI culture medium containing the peptides in a 24-well plate (Costar corporation) and were kept at 37° C. in 5% CO2 with humidity.
Culture supernatants were collected and analyzed when the medium was changed at 4, 7, 10, and 14 days post infection. To monitor the replication of virus, reverse transcriptase (RT) activity in the supernatants was assayed using a commercially available Lenti-RT activity kit. (Cavidi Tech, Uppsala, Sweden). The amount of RT was determined with the aid of a regression line of standards.
The presence of p24 in the supernatants was determined using a commercially available HIV p24 antigen detection kit (ELISA kit from Abbott Laboratories, North Chicago, U.S.A.). In some cases, serial dilutions of the supernatants were made so as to more accurately detect p24 concentration.

Turning to Glu-Pro-Phe-NH2, the “inhibition of HIV-1 infection” value is recorded as “effectively inhibit HIV-1 infection”.
Turning to Gln-Asn-Ala-NH2, the “inhibition of HIV-1 infection” value was “effectively inhibit HIV-1 infection”.
As to Glu-Gln-Ala-NH2, the “inhibition of HIV-1 infection” value is recorded as “effectively inhibit HIV-1 infection”.
As to Gln-Gly-Val-NH2, the “inhibition of HIV-1 infection” value is listed as “effectively inhibit HIV-1 infection”.
Consider Ser-Ile-Leu-NH2, for which the “inhibition of HIV-1 infection” value is reported as “effectively inhibit HIV-1 infection”.
Consider Asn-Pro-Asp-NH2, for which the “inhibition of HIV-1 infection” value is recorded as “effectively inhibit HIV-1 infection”.
Take Gly-Pro-Lys-NH2: the “inhibition of HIV-1 infection” value was “effectively inhibit HIV-1 infection”.
On to Tyr-Lys-Thr-NH2, for which the “inhibition of HIV-1 infection” value was “effectively inhibit HIV-1 infection”.
On to Thr-Glu-Thr-NH2, for which the “inhibition of HIV-1 infection” value was “effectively inhibit HIV-1 infection”.
For Leu-Leu-Val-NH2, the “inhibition of HIV-1 infection” value was “effectively inhibit HIV-1 infection”.
Take Pro-Gly-Ala-NH2: the “inhibition of HIV-1 infection” value is “effectively inhibit HIV-1 infection”.
Turning to Lys-Glu-Pro-NH2, the “inhibition of HIV-1 infection” value is recorded as “effectively inhibit HIV-1 infection”.
Take Ile-Leu-Asp-NH2: the “inhibition of HIV-1 infection” value is on record as “effectively inhibit HIV-1 infection”.
Next, Cys-Lys-Thr-NH2: “effectively inhibit HIV-1 infection”; Pro-Lys-Glu-NH2: “effectively inhibit HIV-1 infection”.
As for Ala-Cys-Gln-NH2, the “inhibition of HIV-1 infection” value is “effectively inhibit HIV-1 infection”.
In the case of Arg-Asp-Tyr-NH2, the “inhibition of HIV-1 infection” value is recorded as “effectively inhibit HIV-1 infection”.
In the case of Val-Gln-Asn-NH2, the “inhibition of HIV-1 infection” value is reported as “effectively inhibit HIV-1 infection”.
Next, Thr-Ala-Cys-NH2: “effectively inhibit HIV-1 infection”.
Pro-Gly-His-NH2: the “inhibition of HIV-1 infection” value was “effectively inhibit HIV-1 infection”.
For Arg-Ala-Glu-NH2, the “inhibition of HIV-1 infection” value is recorded as “effectively inhibit HIV-1 infection”.
In the case of Arg-Val-Leu-NH2, the “inhibition of HIV-1 infection” value is “effectively inhibit HIV-1 infection”.
Asn-Ala-Asn-NH2: the “inhibition of HIV-1 infection” value was “effectively inhibit HIV-1 infection”.
Consider Pro-Asp-Cys-NH2, for which the “inhibition of HIV-1 infection” value is given as “effectively inhibit HIV-1 infection”.
As to Thr-Leu-Glu-NH2, the “inhibition of HIV-1 infection” value is “effectively inhibit HIV-1 infection”.
With Asp-Tyr-Val-NH2, the “inhibition of HIV-1 infection” value is “effectively inhibit HIV-1 infection”.
Next, Val-Lys-Asn-NH2: “effectively inhibit HIV-1 infection”; Ala-Glu-Gln-NH2: “effectively inhibit HIV-1 infection”; Thr-Ile-Leu-NH2: “effectively inhibit HIV-1 infection”.
